From the NIST ThermoML archive (doi:10.1021/je900386p)
Numbers after ± are expanded uncertainties.

Conditions: Crystal; visual observation

Normal melting temperature: 284.6 ± 1.4 °C
Compound: F[P-](F)(F)(F)(F)F.F[P-](F)(F)(F)(F)F.c1cc[n+](CCC[n+]2ccccc2)cc1 [1,1'-(1,3-propanediyl)bis-pyridinium hexafluorophosphate]
